Molecules are shown by their SMILES. Structures can show the parent of a compound that is named as a salt. Where two headings read alike, the source gives them in different places.

One series has as its system HEK293T. As to conditions: cited from earlier work.
A further series relates to P.falciparum Dd2. On the set-up: method as in previously published reports (Table S1 legend). As to conditions: 72 h; results in previous assays; ref previously published reports (Table S1 legend); read-out: 72-h Dd2-SybrGreen PBFS assay IC50; cited from earlier work.
Series [1] deals with mature stage V gametocytes (NF54 strain). As to the kind of experiment: High-throughput screening: killing effect by MitoTracker staining, primary screening at 1.11 µM and dose-response analysis. Type of series: cell-based, Plasmodium falciparum. As to conditions: read-out: Killing IC50. As to the method: (§1) Screening was conducted as previously described. Briefly, mature stage V gametocytes (NF54 strain) were cultured in vitro, then exposed to the explored compounds and filtered thereafter through layers of microspheres (microsphiltration)[25],[28]. Stiffening activity was determined by comparing gametocytemia up and downstream from the microsphere layers after filtration of drug-exposed gametocytes in 384-well plates using a vacuum manifold. Gametocytemia was assessed using DNA (Sybr Green) and erythrocyte membrane (CellMask) staining. Killing effect was assessed by MitoTracker staining. We screened two small libraries, specifically the Pathogen Box from the Medicine for Malaria Venture and the Kinase Inhibitors Box from GSK (400 and 350 compounds, respectively, Fig. 1A, B), and furthermore the larger ReFrame repurposing library (12,805 compounds, Fig. 1C).
(§2) The Pathogen Box library (400 compounds, provided by MMV-Medicine for Malaria Ventures, Geneva, Switzerland), the Kinase Inhibitors Box library (350 compounds, provided by GSK-Glaxo SmithKline DDW Unit, Tres Cantos, Spain), and the ReFrame library (12,805 compounds provided by the California Institute for Biomedical Research-Calibr, La Jolla, CA, USA) were used according to the providers’ instructions. DMSO-solubilized compounds (10 mM stock concentration) were loaded in 384-well plates (Seahorse, cat. no. 201035−100). Two columns were left empty for the controls. For each compound, 5 nL were pre-spotted in a single well to reach a final concentration of 1.11 μM. The final volume for each well was 45 μl. Controls were prepared as follows: 22.5 nL of DMSO were loaded in 16 wells as negative controls (0.05% final concentration); 22.5 nL of NITD609 (provided by MMV, Geneva, Switzerland) 1 mM were loaded in 8 wells (0.5 μM final concentration), 17 nL of Calyculin A (Sigma, cat. no. C5552) […] were loaded in 6 wells (75 nM final concentration) and 225 nL of Gentian Violet (MolPort, cat. no. 002-133-551) 10 mM were loaded in the remaining 2 wells (50 μM final concentration). Plates were prepared in triplicate for the Pathogen Box and sextuplicate for the Kinase Inhibitors Box.
(§3) Plasmodium falciparum NF54 strain parasites (used for screening campaign) were cultured at 4% hematocrit in RBCs from informed blood donors (blood group A) as previously described. Parasites were taken from the -80 °C freezer, then rapidly melt for 1 minute in a 37 °C water bath. A saline solution was gently added to avoid the lysis. Firstly, NaCl dissolved at 12% in distilled water (1/5 of the volume measured in the cryovial) and then NaCl dissolved at 1.6% (9 times the cryovial’s volume). After that, fresh RBCs were added to allow parasites re-growth. Infected RBCs were kept in RPMI medium (Sigma-Aldrich, cat. no. R4130), supplemented with 10% of decomplemented human serum, hypoxanthine 50 mg/l (Sigma-Aldrich, cat. no. H9636). Biobank of Castilla y Leon and Centro de Transfusiones de Madrid as providers of human red blood cell concentrates. The production of gametocytes was induced from a 0.5% ring-stage parasitemia (day 0). Medium was changed daily to induce gametocytes differentiation, as previously described. At day 17, gametocytes were concentrated using a density gradient medium (NycoPrep 1.077, Progen cat. no. 1114550)[27]. Parasitemia was adjusted by FACS (SYBR-Green and MitoTracker double staining, 3–5% targeted). Hematocrit was adjusted to 0.5% by adding fresh RBCs and controlled by manual counting in a Neubauer chamber (Celeromics, cat. no. 717810). Finally, the gametocyte suspension was poured (45 μL/well) into the compound-containing 384-well microplate, then incubated 24 hours both for the screening campaign and the dose-response analysis. Both asexual and sexual stages were cultivated in RPMI 1640 supplemented with 25 mM HEPES, 50 mg/L hypoxanthine, 50 μg/mL gentami-cin, 10% pooled heat-inactivated human serum (A^+).

The subject of a further series is HepG2. As to conditions: cited from earlier work.
The subject of series [2] is mature stage V gametocytes (NF54 strain). As to the kind of experiment: microbe, parasite or virus in culture. Type of series: cell-based, Plasmodium falciparum. As to conditions: read-out: Stiffening IC50 (retention). As to the method: as §1, §2, §3
A short description of series [3]: Hit scoring on safety in human subjects and pharmacokinetics. As to conditions: for Score (PK): peak plasma concentration vs IC50. The text has this: Hits from the ReFrame library were further selected based on safety, preferably oral administration (high score if oral), and potential availability for widespread use.
Setting [4] is: read-out: Cellular cytotoxicity assay IC50, HEK293T, 72 h, first value of cell, ref previously published reports (Table S1 legend).
The mark [5] stands for this setting: stage V gametocytes NF54, 24 h, dose-response analysis, N/A = not active in dose-response analysis.
The mark [6] stands for this setting: read-out: Cellular cytotoxicity assay IC50, HepG2, 72 h, second value of cell, ref previously published reports (Table S1 legend).
Setting [7] is: Plasmodium falciparum, NF54, 24 h.
[8] abbreviates: Plasmodium falciparum, NF54, 24 h, stage V gametocytes NF54, 24 h, dose-response analysis, N/A = not active in dose-response analysis.
[9] abbreviates: Plasmodium falciparum, stage V gametocytes NF54, 24 h, dose-response analysis, N/A = not active in dose-response analysis.

Turning to `C(=N\NC1=NCCN1)/c1c2ccccc2c(/C=N/NC2=NCCN2)c2ccccc12` [Bisantrene HCl], the IC50 (commonly the concentration that inhibits the measured activity by half) was 54 nM with HEK293T (setting [4]), 65 nM in the series on P.falciparum Dd2, 2200 nM in series [1] (setting [5]) and 62 nM in the series on HepG2 (setting [6]).

For `COc1cccc2c1ccc1nc3cccc(C(=O)N[C@H](C)CN(C)C)c3nc12` [MLN 576], the IC50 in series [2] (setting [5]) is 5020 nM; in the series with HEK293T it was 218 nM; with P.falciparum Dd2, 2040 nM; in the series on HepG2 it was 413 nM. In addition, the “Score (safety)” value in series [3] was 0. The “Score (PK)” value in series [3] is 0.

As to `Cc1nc2c(s1)C(O)=C/C(=N\CCN(C)C)C2=O` [BN-82685], the IC50 is 4600 nM in series [2] (setting [7]); 2920 nM in the series with HEK293T (setting [4]); 1740 nM with P.falciparum Dd2; 2800 nM in series [1] (setting [8]); 1890 nM in the series on HepG2 (setting [6]).

`CO[C@H]1C[C@H](O[C@H]2CC[C@]3(C=O)[C@H]4CC[C@]5(C)[C@@H](C6=CC(=O)OC6)CC[C@]5(O)[C@@H]4CC[C@]3(O)C2)O[C@H](C)[C@H]1O` [Cymarine]: the IC50 was 330 nM in series [2] (setting [7]), 71 nM in the series on HEK293T (setting [4]), 9950 nM with P.falciparum Dd2 and 102 nM in the series on HepG2 (setting [6]). For the same molecule, the “Score (safety)” value in series [3] (human) is reported as 0. Also, the “Score (PK)” value in series [3] was 0.

As to `CC[C@H]1CN2CCc3cc(OC)c(OC)cc3[C@@H]2C[C@@H]1C[C@H]1NCCc2cc(O)c(OC)cc21` [Cephaeline], the IC50 is 3800 nM in series [2] (setting [7]); 14 nM in the series with HEK293T (setting [4]); 28 nM with P.falciparum Dd2; 1000 nM in series [1] (setting [7]); 62 nM in the series on HepG2 (setting [6]).

Turning to `CC1=C(C)C(=O)C(CCCCCCCCCC[P+](c2ccccc2)(c2ccccc2)c2ccccc2)=CC1=O` [SkQ1], the half-inhibitory concentration (IC50) in series [2] (setting [5]) was 1900 nM; in the series on HEK293T it was 778 nM; in the series with P.falciparum Dd2 it was 1050 nM; in series [1] (setting [5]), 3850 nM; in the series on HepG2, 3130 nM.

As for `O=C(NO)c1cnc(N2C[C@@H]3[C@H](C2)[C@H]3NCc2ccc3cc(F)ccc3n2)nc1` [CHR-3996], the concentration for half-maximal inhibition (IC50) in series [2] (setting [7]) was 7230 nM; with HEK293T it was 728 nM; in the series on P.falciparum Dd2, 15 nM; in series [1] (setting [8]) it was 70 nM; with HepG2, 127 nM. In series [3], the “Score (safety)” value is 0. Moreover, the “Score (PK)” value in series [3] is recorded as 0.

For the molecule `CN(C)CCOc1ccc2[nH]c(C(=O)NCC#Cc3ccc(C(=O)NO)cc3)cc2c1` [CRA-026440], the half-maximal inhibitory concentration (IC50) was 550 nM in series [2] (setting [5]); 81 nM in the series with HEK293T; 63 nM with P.falciparum Dd2; 16000 nM in series [1] (setting [5]); 11 nM in the series on HepG2.

In the case of `COC(=O)C[C@](O)(CCCC(C)(C)O)C(=O)O[C@@H]1C(OC)=C[C@]23CCCN2CCc2cc4c(cc2[C@H]13)OCO4` [Homoharringtonine], the concentration for half-maximal inhibition (IC50) in series [2] (setting [7]) is 2300 nM; in the series on HEK293T, 32 nM; in the series on P.falciparum Dd2, 7 nM; in series [1] (setting [8]), 1730 nM; in the series on HepG2 it was 122 nM.

For `CCCCCCCCN=c1ccn(CCCCCCCC)cc1` [Pirtenidine], the IC50 in series [2] (setting [5]) is 3650 nM; in the series on HEK293T, 1480 nM; in the series on P.falciparum Dd2, 615 nM; in series [1] (setting [5]), 2780 nM; in the series with HepG2, 285 nM. The “Score (safety)” value in series [3] was 0. In addition, the “Score (PK)” value in series [3] was 0.

With `C[C@@H]1O[C@@H](O[C@@H]2C=C3CC[C@@H]4[C@H](CC[C@]5(C)[C@@H](c6ccc(=O)oc6)CC[C@]45O)[C@@]3(C)CC2)[C@H](O)[C@H](O)[C@H]1O` [Proscillaridin], the half-maximal inhibitory concentration (IC50) was 80 nM in series [2] (setting [7]); 9 nM in the series with HEK293T (setting [4]); 9950 nM in the series on P.falciparum Dd2; 300 nM in series [1] (setting [9]); 14 nM in the series with HepG2 (setting [6]). Besides, in series [3] (human), the “Score (safety)” value came to 0. Moreover, in series [3], the “Score (PK)” value is reported as 0.

In the case of `CCCCC(CC)CNC(=N)NC(=N)NCCCCCCNC(=N)NC(=N)NCC(CC)CCCC` (stereo not shown) [Alexidine dihydrochloride], the IC50 in series [2] (setting [7]) was 550 nM; in the series on HEK293T (setting [4]), 3330 nM; in the series on P.falciparum Dd2, 32 nM; in series [1] (setting [8]), 41000 nM; with HepG2 (setting [6]) it was 3060 nM.

Take `CC1CCC(C(C)C)C(OC(=O)C[N+](C)(C)CCCCCCCCCC[N+](C)(C)CC(=O)OC2CC(C)CCC2C(C)C)C1` (stereo not shown) [Decamethoxine]: the 50% inhibitory concentration (IC50) was 1000 nM in series [2] (setting [5]); 3300 nM in the series with HEK293T; 61 nM in the series with P.falciparum Dd2; 8100 nM in series [1] (setting [5]); 4300 nM in the series with HepG2.

On to `N=C(N)c1ccc(C=C2c3ccccc3-c3ccccc32)cc1` [Paranyline], for which the IC50 was 3200 nM in series [2] (setting [7]); 1420 nM with HEK293T (setting [4]); 1870 nM in the series on P.falciparum Dd2; 1900 nM in series [1] (setting [8]); 650 nM with HepG2 (setting [6]). Moreover, the “Score (safety)” value in series [3] was 0. Also, in series [3], the “Score (PK)” value is recorded as 0.

`CO[C@H]1/C=C\C=C(/C)C(=O)NC2=CC(=O)C(NCCN(C)C)=C(C[C@@H](C)C[C@H](OC)[C@H](O)[C@@H](C)/C=C(\C)[C@@H]1OC(N)=O)C2=O` [Alvespimycin hydrochloride]: the 50% inhibitory concentration (IC50) was 960 nM in series [2] (setting [7]); 98 nM with HEK293T (setting [4]); 272 nM in the series on P.falciparum Dd2; 1750 nM in series [1] (setting [9]); 14 nM in the series on HepG2 (setting [6]).

Take `O=C(CC1NCCCC1O)Cn1cnc2cc(Br)c(Cl)cc2c1=O` (stereo not shown) [Halofuginone]: the IC50 in series [2] (setting [7]) was 4300 nM; with HEK293T, 89 nM; in the series with P.falciparum Dd2, 1 nM; in series [1] (setting [9]) it was 240 nM; with HepG2, 36 nM. Moreover, the “Score (safety)” value in series [3] (human) is 3.

`CC(=O)O[C@H]1C[C@H](O[C@H]2[C@@H](O)C[C@H](O[C@H]3[C@@H](O)C[C@H](OC4CC[C@@]5(C)[C@H](CC[C@@H]6[C@@H]5CC[C@]5(C)[C@@H](C7=CC(=O)OC7)CC[C@]65O)C4)O[C@@H]3C)O[C@@H]2C)O[C@H](C)[C@H]1O[C@@H]1O[C@H](CO)[C@@H](O)[C@H](O)[C@H]1O` (stereo partly shown) [Lanatoside A]: the IC50 in series [2] (setting [7]) was 860 nM; with HEK293T (setting [4]), 171 nM; with P.falciparum Dd2, 9950 nM; with HepG2 (setting [6]), 136 nM. Also, the “Score (safety)” value in series [3] (human) came to 0. Moreover, in series [3], the “Score (PK)” value turned out to be 0.

As to `CO[C@H]1[C@H](O)[C@H](O[C@H]2CC[C@@]3(C=O)[C@H](CC[C@@H]4[C@@H]3CC[C@]3(C)[C@@H](C5=CC(=O)OC5)CC[C@]43O)C2)O[C@@H](C)[C@@H]1O` [Peruvoside], the 50% inhibitory concentration (IC50) in series [2] (setting [7]) is 2680 nM; in the series with HEK293T (setting [4]), 20 nM; in the series with P.falciparum Dd2, 9950 nM; with HepG2 (setting [6]) it was 32 nM.

(Values after publication PMC10082216 (Nature Communications, 2023).)
